According to ChEMBL document CHEMBL1131462, “Quantitative analysis of the structural requirements for blockade of the N-methyl-D-aspartate receptor at the phencyclidine binding site” (J Med Chem, 1998):
pKi: −log10 of the molar value.

Biological target: Glutamate [NMDA] receptor
Test: The compound was tested for its ability to block PCP N-methyl-D-aspartate glutamate receptor at the PCP (phencyclidine) binding site in postmortem human frontal cortex.

SMILES | pKi
Cc1ccccc1C(OCCN(C)C)c1ccccc1 (stereo not drawn) [ORPHENADRINE] | 5.22
CC12CC3CC(C)(C1)CC(CCN)(C3)C2 | 6.10
NCC12CC3CC(CC(C3)C1)C2 | 4.48
NCCCCC12CC3CC(CC(C3)C1)C2 | 4.76
CN(C)C12CC3CC(C)(CC(C)(C3)C1)C2 | 5.35
NC12CC3CC(CC(C3)C1)C2 [AMANTADINE] | 4.98
OC(CCN1CCCC1)(c1ccccc1)C1CCCCC1 (racemic) [PROCYCLIDINE] | 5.77
CCC12CC3CC(N)(C1)CC(CC)(C3)C2 | 6.72
CCC12CC3CC(N)(C1)CC(c1ccccc1)(C3)C2 (stereo not drawn) | 5.39
CN(C)C12CC3CC(CC(C3)C1)C2 | 4.68
CNC12CC3CC(C)(CC(C)(C3)C1)C2 | 5.79
CCC12CC3CC(CC(N)(C3)C1)C2 | 6.22
CN1CC[C@@]23CCCC[C@@H]2[C@@H]1Cc1ccc(O)cc13 [DEXTRORPHAN] | 6.66
NCCCC12CC3CC(CC(C3)C1)C2 | 5.02
c1ccc(C2(N3CCCCC3)CCCCC2)cc1 [PHENCYCLIDINE] | 7.64
COc1ccc2c(c1)[C@]13CCCC[C@@H]1[C@H](C2)N(C)CC3 [DEXTROMETHORPHAN] | 5.77
CC(C)(C)N1CCC(c2ccccc2)(c2ccccc2)CC1 [BUDIPINE] | 4.93
NCCC12CC3CC(CC(C3)C1)C2 | 5.42
CC(C)C12CC3CC(CC(N)(C3)C1)C2 | 5.14
NC12CC3CC(C1)CC(c1ccccc1)(C3)C2 | 4.82
CNC12CC3CC(CC(C3)C1)C2 | 4.66
CCNC12CC3CC(C)(CC(C)(C3)C1)C2 | 5.76
CNC1(c2ccccc2Cl)CCCCC1=O (racemic) [KETAMINE] | 6.38
